According to patent publication US6706740B2, “Fungicidal heterocyclic aromatic amides and their compositions, methods of use and preparation” (Dow AgroSciences LLC, priority 1999, dated 2004):

Test system: Puccinia recondita—PUCCRT
Test: Brown Rust of Wheat, in vivo whole plant, 24 Hour Protectant
Details: 100 ppm spray, wheat, 24 hour protectant, % control of fungal infection vs untreated plants

SMILES | PUCCRT in vivo 1 Day Protectant
COCCC(=O)Oc1c(OC)ccnc1C(=O)N[C@H]1COC(=O)[C@H](Cc2ccccc2)[C@@H](OC(=O)CCOC)[C@H](C)OC1=O [Compound 705] | + +
COc1ccnc(C(=O)N[C@H]2COC(=O)[C@H](Cc3ccccc3)[C@@H](OC(=O)C(C)C)[C@H](C)OC2=O)c1O[Si](C)(C)C(C)(C)C [Compound 720] | + +

Same assay, conditions: Puccinia, 24 h, read-out: PUCCRT in vivo 1 Day Protectant

SMILES | pest or weed control at 100 ppm
CCCC[C@H]1C(=O)O[C@H](C)C(NC(=O)c2cccc(NC(=O)c3nccc(OC)c3O)c2O)C(=O)O[C@@H](C)[C@@H]1OC(=O)CC(C)C (stereo partly shown) [Compound 473] | 25 to 74%

Same assay, conditions: Puccinia; wheat plants sprayed at 100 ppm, inoculated after 24 hours; control of fungal infection vs untreated plants; read-out: PUCCRT in vivo 1 Day Protectant

SMILES | pest or weed control at 100 ppm
CC(C)C(=O)O[C@H]1[C@H](C)OC(=O)[C@@H](NC(=O)c2ccncc2O)COC(=O)[C@@H]1Cc1ccccc1 [Compound 513] | 25 to 74%
Cc1ccnc(C(=O)NC2CC(C)(C)CC(C)(C)C2)c1OC(=O)C(C)C [Compound 571] | < 25%

Test system: Leptosphaeria nodorum—LEPTNO
Test: Glume Blotch of Wheat, in vivo whole plant, 24 Hour Protectant
Details: 100 ppm spray, wheat, 24 hour protectant, % control of fungal infection vs untreated plants

SMILES | LEPTNO in vivo 1 Day Protectant
COCCC(=O)Oc1c(OC)ccnc1C(=O)N[C@H]1COC(=O)[C@H](Cc2ccccc2)[C@@H](OC(=O)CCOC)[C@H](C)OC1=O [Compound 705] | + +
COc1ccnc(C(=O)N[C@H]2COC(=O)[C@H](Cc3ccccc3)[C@@H](OC(=O)C(C)C)[C@H](C)OC2=O)c1O[Si](C)(C)C(C)(C)C [Compound 720] | + +

Same assay, conditions: Leptosphaeria; wheat plants sprayed at 100 ppm, inoculated after 24 hours; control of fungal infection vs untreated plants; read-out: LEPTNO in vivo 1 Day Protectant

SMILES | pest or weed control at 100 ppm
Cc1ccnc(C(=O)NC2CC(C)(C)CC(C)(C)C2)c1OC(=O)C(C)C [Compound 571] | 25 to 74%

Same assay, conditions: in vivo

SMILES | LEPTNO in vivo 1 Day Protectant
CCCC[C@H]1C(=O)O[C@H](C)C(NC(=O)c2cccc(NC(=O)c3nccc(OC)c3O)c2O)C(=O)O[C@@H](C)[C@@H]1OC(=O)CC(C)C (stereo partly shown) [Compound 473] | + +

Same assay, conditions: wheat plants sprayed at 100 ppm, inoculated after 24 hours; control of fungal infection vs untreated plants

SMILES | LEPTNO in vivo 1 Day Protectant
CC(C)C(=O)O[C@H]1[C@H](C)OC(=O)[C@@H](NC(=O)c2ccncc2O)COC(=O)[C@@H]1Cc1ccccc1 [Compound 513] | + +

Test system: Phytophthora infestans—PHYTIN
Test: whole plant or invertebrate
Assay type: in vivo
Details: Phytophthora, in Solanum lycopersicum, 24 h, read-out: PHYTIN in vivo 1 Day Protectant

SMILES | pest or weed control at 100 ppm
CCCC[C@H]1C(=O)O[C@H](C)C(NC(=O)c2cccc(NC(=O)c3nccc(OC)c3O)c2O)C(=O)O[C@@H](C)[C@@H]1OC(=O)CC(C)C (stereo partly shown) [Compound 473] | < 25%
CC(C)C(=O)O[C@H]1[C@H](C)OC(=O)[C@@H](NC(=O)c2ccncc2O)COC(=O)[C@@H]1Cc1ccccc1 [Compound 513] | < 25%
COCCC(=O)Oc1c(OC)ccnc1C(=O)N[C@H]1COC(=O)[C@H](Cc2ccccc2)[C@@H](OC(=O)CCOC)[C@H](C)OC1=O [Compound 705] | < 25%
Cc1ccnc(C(=O)NC2CC(C)(C)CC(C)(C)C2)c1OC(=O)C(C)C [Compound 571] | 25 to 74%
COc1ccnc(C(=O)N[C@H]2COC(=O)[C@H](Cc3ccccc3)[C@@H](OC(=O)C(C)C)[C@H](C)OC2=O)c1O[Si](C)(C)C(C)(C)C [Compound 720] | < 25%

Test system: Erysiphe graminis—ERYSGT
Test: Powdery Mildew of Wheat, in vivo whole plant, 24 Hour Protectant
Details: Erysiphe, 24 h, read-out: ERYSGT in vivo 1 Day Protectant

SMILES | pest or weed control at 100 ppm
CCCC[C@H]1C(=O)O[C@H](C)C(NC(=O)c2cccc(NC(=O)c3nccc(OC)c3O)c2O)C(=O)O[C@@H](C)[C@@H]1OC(=O)CC(C)C (stereo partly shown) [Compound 473] | < 25%

Same assay, conditions: Erysiphe; 100 ppm spray, wheat, 24 hour protectant, % control of fungal infection vs untreated plants; read-out: ERYSGT in vivo 1 Day Protectant

SMILES | pest or weed control at 100 ppm
COCCC(=O)Oc1c(OC)ccnc1C(=O)N[C@H]1COC(=O)[C@H](Cc2ccccc2)[C@@H](OC(=O)CCOC)[C@H](C)OC1=O [Compound 705] | < 25%
COc1ccnc(C(=O)N[C@H]2COC(=O)[C@H](Cc3ccccc3)[C@@H](OC(=O)C(C)C)[C@H](C)OC2=O)c1O[Si](C)(C)C(C)(C)C [Compound 720] | < 25%

Same assay, conditions: Erysiphe; wheat plants sprayed at 100 ppm, inoculated after 24 hours; control of fungal infection vs untreated plants; read-out: ERYSGT in vivo 1 Day Protectant

SMILES | pest or weed control at 100 ppm
CC(C)C(=O)O[C@H]1[C@H](C)OC(=O)[C@@H](NC(=O)c2ccncc2O)COC(=O)[C@@H]1Cc1ccccc1 [Compound 513] | < 25%
Cc1ccnc(C(=O)NC2CC(C)(C)CC(C)(C)C2)c1OC(=O)C(C)C [Compound 571] | < 25%

Test system: Septoria tritici—SEPTTR
Test: Leaf Blotch of Wheat, in vivo whole plant, 24 Hour Protectant
Details: 100 ppm spray, wheat, 24 hour protectant, % control of fungal infection vs untreated plants

SMILES | SEPTTR in vivo 1 Day Protectant
COc1ccnc(C(=O)N[C@H]2COC(=O)[C@H](Cc3ccccc3)[C@@H](OC(=O)C(C)C)[C@H](C)OC2=O)c1O[Si](C)(C)C(C)(C)C [Compound 720] | + +

Same assay, conditions: Zymoseptoria tritici, 24 h, 100 ppm spray, wheat, 24 hour protectant, % control of fungal infection vs untreated plants; read-out: SEPTTR in vivo 1 Day Protectant

SMILES | pest or weed control at 100 ppm
COCCC(=O)Oc1c(OC)ccnc1C(=O)N[C@H]1COC(=O)[C@H](Cc2ccccc2)[C@@H](OC(=O)CCOC)[C@H](C)OC1=O [Compound 705] | 25 to 74%

Same assay, conditions: Zymoseptoria tritici, 24 h, read-out: SEPTTR in vivo 1 Day Protectant

SMILES | pest or weed control at 100 ppm
CCCC[C@H]1C(=O)O[C@H](C)C(NC(=O)c2cccc(NC(=O)c3nccc(OC)c3O)c2O)C(=O)O[C@@H](C)[C@@H]1OC(=O)CC(C)C (stereo partly shown) [Compound 473] | 25 to 74%

Same assay, conditions: Zymoseptoria tritici, 24 h, wheat plants sprayed at 100 ppm, inoculated after 24 hours; control of fungal infection vs untreated plants; read-out: SEPTTR in vivo 1 Day Protectant

SMILES | pest or weed control at 100 ppm
CC(C)C(=O)O[C@H]1[C@H](C)OC(=O)[C@@H](NC(=O)c2ccncc2O)COC(=O)[C@@H]1Cc1ccccc1 [Compound 513] | < 25%
Cc1ccnc(C(=O)NC2CC(C)(C)CC(C)(C)C2)c1OC(=O)C(C)C [Compound 571] | < 25%
